Experimental data published in patent US11202779B2, “Combinations for the treatment of neoplasms using quiescent cell targeting with EGFR inhibitors” (Felicitex Therapeutics, Inc., priority 2016, dated 2021).
Read-outs that look alike come from different tables or passages of the source. Values belong to the molecule of their own block, whether it stands above or below them.

Key:
[1] = system: SW620 cells; assay: FACS analysis of cell cycle distribution by DNA content (propidium iodide), SW620; format: cell-based; details: 24 hours in FBS− media, AZ191 2.5, 5, 10 μM, Compound I-7 1.25, 2.5, 5 μM
Method: (§1) The SW620 cells were cultured and treated as described in Example 1. For propidium iodide (PI) staining, manufacturer's protocol supplied with the Guava Cell Cycle Reagent for Flow Cytometry (EMD Millipore) was followed. The measurements were performed with Guava PCA-96 flow cytometer (EMD Millipore) using the green laser for excitation at 535 nm and monitoring emission at 617 nm.
as §1, with “cultured, treated,” for “cultured”, “analyzed” for “treated”, “Examples” for “Example”

[2] = system: DYRK1B; details: literature value; read-out: inhibits DYRK1B at; cited from earlier work
[3] = system: quiescent cancer cells; details: in vitro, literature; cited from earlier work
[4] = system: PC9 cells; assay: Cell viability assay in 2D cell culture (CellTiter-Glo), PC9; format: cell-based; details: Homo sapiens, PC-9, 96 h
Excerpt: (§2) The following cell lines were obtained from ATCC and cultured according to the ATCC recommendations: H1975—non-small cell lung cancer cell line harboring L858R and T790M mutations; HCC827—non-small cell lung cancer cell line with E746-A750 deletion in EGFR TK; PC9—non-small cell lung cancer cell line with E746-A750 deletion in EGFR TK; A549—non-small cell lung cancer cell line with wild type EGFR; PANC1—pancreatic cancer cell line; MiaPaCa-2—pancreatic cancer cell line, and SW620—colon cancer cell line. Cell cultures of these lines were seeded into 6-well plates at 3×10^5−6×10^5 cells/well; the plated number of cells depended on cell size and rate of proliferation, aiming for approximately 50% confluency. After seeding, the cells were allowed to attach for 24 hours while incubated at 37° C. in a humidified 5% CO2 atmosphere, and then treated with compounds for desired amount of time (usually 24 hours) incubating under same conditions. Then the cells were harvested by trypsinization, pooled with the floating cells, washed in PBS, and fixed in 70% ice-cold ethanol overnight. For Acridine Orange (AO) staining, fixed cells were washed once with ice-cold PBS, re-suspended in 100 μL PBS, followed by addition of 200 μL of permeabilizing solution and 600 μL AO staining solution.
(§3) For viability analysis, cells were seeded into 96-well plates at 2×10^3-6×10^3 cells/well; depending on cell size and rate of proliferation aiming for approximately 50% confluency. Cells were allowed to attach for 24 hours incubated at 37° C. in a humidified 5% CO2 atmosphere. The treatments were performed using at least 6 different concentrations of a compound in 1:3 serial dilutions. Before reading the results cells were incubated for 96 hours in 5% CO2 incubator at 37° C. Each treatment was performed in triplicate. Results were analyzed by CellTiter-Glo™ Luminescent Cell Viability Assay (Promega, cat. # G7571) according to the manufacturer's instructions using SpectraMAX Gemini Spectrophotometer (Molecular Devices).

[5] = system: A549 cells; assay: Cell viability assay in 2D cell culture (CellTiter-Glo), A549; format: cell-based; details: Homo sapiens, A549, 96 h
Excerpt: as §2, §3

[6] = system: PANC1 cells; assay: Cell viability assay in 2D cell culture (CellTiter-Glo), PANC1; format: cell-based; details: Homo sapiens, PANC-1, 96 h
[7] = system: H1975 cells; assay: Cell viability assay in 2D cell culture (CellTiter-Glo), H1975; format: cell-based; details: Homo sapiens, NCI-H1975, 96 h
[8] = system: phosphorylated Y1068-EGFR; assay: Western blot, EGFR phosphorylation in H1975 cells; format: cell-based; details: 24 hours treatment
Method: (§4) For Western Blot analysis cells were seeded into 6-well plates at 5×10^5-9×10^5 cells/well (depending on the cell size and rate of proliferation), allowed to attach for 24 hours, then treated with compounds for 24 hours, and harvested. Immunoblotting was performed using conventional techniques, as described in Cell Signaling Technologies Western Blotting protocol (www.cellsignal.com).

[9] = system: DYRK1B; assay: Western blot, DYRK1B expression in H1975 cells; format: cell-based; details: 24 hours treatment, compared to untreated cells in FBS+ or FBS− medium
Method: as §4

[10] = system: MiaPaCa-2 cells; assay: Cell viability assay in 2D cell culture (CellTiter-Glo), MiaPaCa-2; format: cell-based; details: Homo sapiens, MIA PaCa-2, 96 h
Excerpt: as §2, §3

[11] = system: PC9 human non-small cell lung cancer cells; details: exposure of PC9 cells, literature; cited from earlier work
[12] = system: H1975 spheroids; assay: Cell viability assay in 3D cell culture (spheroids), H1975; format: cell-based; details: Homo sapiens, NCI-H1975, 168 h, seven days
Method: Each treatment was performed in triplicate.
Cells were incubated for 2-3 days (depending on the cell line) at 37° C. in a humidified 5% CO2 atmosphere allowing for tight spheroid formation. For the treatment, 50 μL of media was removed from each well and replaced with fresh media with compounds. […] Before reading the results, cells were incubated for the period of 4-10 days in 5% CO2 incubator at 37° C. If the treatment time exceeded 4 days, […] in each well was replaced with fresh media containing the test compound every fourth day. Each treatment was performed in duplicate. […] Prior to analysis, the spheroids were photographed at 50× magnification.

[13] = system: H1975 cells; assay: FACS analysis of cell cycle distribution (Acridine Orange), H1975; format: cell-based; details: 24 hours
[14] = EGFR inhibitor alone (Compound I-5 / I-7 not present)
[15] = EGFR inhibitor alone (Compound I-7 not present)
[16] = Compound I-7 present at 2 μM, read-out: EC50
[17] = Compound I-7 present at 4 μM, read-out: EC50
[18] = EGFR inhibitor alone (Compound I-5 / I-7 not present), read-out: EC50
[19] = 18 nM osimertinib with 5 μM Compound I-7, FBS+ or pre-starved

SMILES: COc1cc(N2CCN(C)CC2)ccc1Nc1nccc(-c2cn(C)c3cnccc23)n1 [AZ191]
fraction of cells in quiescent state (G0), based on fraction of cells G0+G1 phase [1]: no decrease in fraction of cells in quiescent state (G0) | IC50 [2]: 17 nM

SMILES: CCOC(=N)c1nc2ccc3ncnc(Nc4cc(F)c(F)cc4Cl)c3c2s1 [Compound I-7]
fraction of cells in quiescent state (G0), based on fraction of cells G0+G1 phase [1]: significant decrease in fraction of cells in quiescent state (G0)

SMILES: COc1ncc2cc(C(=O)Nc3cc(C(=O)NCc4cccc(Cl)c4)ccc3Cl)c(=O)[nH]c2n1 [TC-S 7004]
effectiveness against quiescent cancer cells [3]: effective against quiescent cancer cells in vitro

EC50 ([4]; Compound I-7 present at 3 μM): 1.3 nM | EC50 ([4]; Compound I-7 present at 6 μM): 0.4 nM | EC50 [4, 14]: 2.1 nM | EC50 ([5]; Compound I-7 present at 3 μM): 2600 nM | EC50 ([5]; Compound I-7 present at 6 μM): 1000 nM | EC50 [5, 15]: 4700 nM | EC50 ([6]; Compound I-7 present at 2 μM): 1800 nM | EC50 ([6]; Compound I-7 present at 4 μM): 1500 nM | EC50 [6, 14]: 1900 nM | EC50 ([7]; Compound I-7 present at 2 μM): 25.2 nM | EC50 ([7]; Compound I-7 present at 4 μM): 8.2 nM | EC50 [7, 15]: 89.4 nM
SMILES: CN(C)C/C=C/C(=O)Nc1cc2c(Nc3ccc(F)c(Cl)c3)ncnc2cc1O[C@H]1CCOC1 [afatinib]

EC50 [6, 16]: 9900 nM | EC50 [6, 17]: 7100 nM | EC50 [6, 18]: 11400 nM | EC50 ([7]; Compound I-7 present at 2 μM): 88.6 nM | EC50 ([7]; Compound I-7 present at 4 μM): 34.8 nM | EC50 [7, 15]: 110 nM
SMILES: COc1cc2ncnc(Nc3ccc(F)c(Cl)c3)c2cc1NC(=O)/C=C/CN1CCCCC1 [dacomitinib]
EGFR phosphorylation (ph-Y1068 EGFR) [8]: suppressed the EGFR phosphorylation | expression of DYRK1B protein [9]: induced expression of DYRK1B protein similar to or higher than that produced by serum starvation

SMILES: C#Cc1cccc(Nc2ncnc3cc(OCCOC)c(OCCOC)cc23)c1 [erlotinib]
EC50 ([4]; Compound I-5 present at 2 μM): 9.3 nM | EC50 ([4]; Compound I-5 present at 4 μM): 3.7 nM | EC50 [4, 14]: 17.3 nM | EC50 ([5]; Compound I-7 present at 3 μM, read-out: EC50): 5900 nM | EC50 ([5]; Compound I-7 present at 6 μM, read-out: EC50): 400 nM | EC50 ([5]; EGFR inhibitor alone (Compound I-7 not present), read-out: EC50): 10400 nM | EC50 ([6]; Compound I-5 present at 2.5 μM, read-out: EC50): > 30000 nM | EC50 ([6]; Compound I-5 present at 5 μM, read-out: EC50): 14000 nM | EC50 [6, 18]: > 30000 nM | EC50 ([10]; Compound I-5 present at 2.5 μM): 6400 nM | EC50 ([10]; Compound I-5 present at 5 μM): 3500 nM | EC50 ([10]; erlotinib alone (Compound I-5 not present)): > 30000 nM | fraction of cells in G0 (pharmacological quiescence) [11]: significant increase of fraction of cells in G0

SMILES: CS(=O)(=O)CCNCc1ccc(-c2ccc3ncnc(Nc4ccc(OCc5cccc(F)c5)c(Cl)c4)c3c2)o1 [lapatinib]
fraction of cells in G0 (pharmacological quiescence) [11]: significant increase of fraction of cells in G0

SMILES: C=CC(=O)Nc1cc(Nc2nccc(-c3cn(C)c4ccccc34)n2)c(OC)cc1N(C)CCN(C)C [osimertinib]
EC50 [6, 16]: 4600 nM | EC50 [6, 17]: 4500 nM | EC50 [6, 18]: 5300 nM | EC50 ([7]; Compound I-7 present at 2 μM): 7.9 nM | EC50 ([7]; Compound I-7 present at 4 μM): 4.2 nM | EC50 [7, 15]: 8.7 nM | EC50 ([12]; regular growth media (FBS+), Compound I-7 not present): 0.68 nM | EC50 ([12]; regular growth media (FBS+), Compound I-7 present at 2.5 μM): 0.28 nM | EC50 ([12]; serum starvation (FBS−), Compound I-7 not present): 3.3 nM | EC50 ([12]; serum starvation (FBS−), Compound I-7 present at 2.5 μM): 1 nM | fraction of cells in quiescent (G0) state ([13]; 18 nM osimertinib alone, pre-incubated in FBS+ or pre-starved in FBS− medium): even more effective than serum starvation (FBS−) at inducing a large fraction of the cells into the quiescent (G0) state | apoptotic cells (sub-G0 population) [13, 19]: significant increases in apoptotic cells | fraction of cells in G0 [13, 19]: reduced the fraction of cells in G0 | EGFR phosphorylation (ph-Y1068 EGFR) [8]: suppressed the EGFR phosphorylation | expression of DYRK1B protein [9]: induced expression of DYRK1B protein similar to or higher than that produced by serum starvation

EC50 [6, 16]: 9900 nM | EC50 [6, 17]: 7100 nM | EC50 [6, 18]: 11400 nM | EC50 ([7]; Compound I-7 present at 2 μM): 22.5 nM | EC50 ([7]; Compound I-7 present at 4 μM): 14.9 nM | EC50 [7, 15]: 351 nM
SMILES: C=CC(=O)Nc1cccc(Nc2nc(Nc3ccc(N4CCN(C(C)=O)CC4)cc3OC)ncc2C(F)(F)F)c1 [rociletinib]
